2 molecules from patent publication US6063774A, “Tricyclic quinoxaline derivatives as neuroprotective agents” (Warner-Lambert Company, priority 1998, dated 2000) can be followed below.

The target of one experiment is AMPA receptors. Description: AMPA receptor binding (Honore et al.). As to conditions: Table 1.
The target of experiment [1] is kainate site (non-NMDA receptor). Description: kainate site binding (London and Coyle). As to conditions: Table 1.
In experiment [2] the target is T1, glycine site of the NMDA receptor (Rattus norvegicus, UniProt P35439).
T1 construct: from tissue
Description: glycine site of NMDA receptor binding (Jones et al.). The settings on record: Table 1.

Another experiment has as its system mice. Description: maximal electroshock time course in mice, with and without probenecid pretreatment. It counts as in vivo. The protocol: FIG. 1 plots maximal electroshock time course with Compound 1 of the invention, with and without probenecid pretreatment in mice.
The graph is the percent of mice protected versus the time in minutes. The solid circle (.circle-solid.) is the compound from Example 1. In a separate experiment the solid square (.box-solid.) the compound from Example 1 (10 mg/kg, IV) was given to mice (n=5) pretreated with probenecid 30 minutes before the compound.

Structures are written as SMILES.

As to `Cc1c([N+](=O)[O-])cc2[nH]c(=O)c(=O)n3c2c1CN(C)C(=O)C3` [Example 1, 6-8-Dimethyl-5-nitro-7,8-dihydro-3H-d,8,10a-triaza-cyclo-hepta[de]naphthalene-1,2,9-trione], the results for the half-maximal inhibitory concentration (IC50) (on AMPA receptors; in experiment [2]) were 850 nM and 200 nM, respectively. Besides, the “IC50 KA” value in experiment [1] amounted to 1550 nM. The “effect of probenecid pretreatment on protection against maximal electroshock” value in the experiment with mice (10 mg/kg IV, n=5 mice, probenecid 30 minutes before the compound) is recorded as “positively modulated by ion transporter substrates such as probenecid”. Also, the “protection against maximal electroshock (in words)” value in the experiment on mice (30 mg/kg IV, 5 mice, percent of mice protected versus time plotted in FIG. 1 only) is listed as “indicative of the in vivo potency”.

Take `Cc1c([N+](=O)[O-])cc2[nH]c(=O)c(=O)n3c2c1CN(C)C(=O)C3c1ccccc1` (centres unmarked) [Example 2, 6,8-Dimethyl-5-nitro-10-phenyl-7,8-dihdro-3H-3,8,10a-triaza-cyclohepta(de)morphthalene-1,2,9-trione]: the 50% inhibitory concentration (IC50) – broadly, the concentration that inhibits the measured activity by half – at AMPA receptors is 4500 nM; in experiment [2], 600 nM. For the same molecule, the “IC50 KA” value in experiment [1] came out at 4900 nM.
